Assay results as given in the NIST ThermoML archive (doi:10.1021/acs.jced.7b00694).

Assay: xn = mol fraction of the nth substance listed
Details: Gas, Buoyancy - hydrostatic balance with magnetic suspension - one sinker

[HH] [hydrogen] + N#N
Details	mass density [kg/m3]
240.05 K, 998 kPa, x2 = 0.95	13.46
240.05 K, 1997 kPa, x2 = 0.95	27.15
240.05 K, 2999 kPa, x2 = 0.95	41.055
240.05 K, 3998 kPa, x2 = 0.95	55.055
240.05 K, 4998 kPa, x2 = 0.95	69.19
240.05 K, 5999 kPa, x2 = 0.95	83.412
240.05 K, 7000 kPa, x2 = 0.95	97.671
240.05 K, 8000 kPa, x2 = 0.95	111.894
240.05 K, 9001 kPa, x2 = 0.95	126.079
240.05 K, 10004 kPa, x2 = 0.95	140.187
240.05 K, 11004 kPa, x2 = 0.95	154.093
240.05 K, 12006 kPa, x2 = 0.95	167.817
240.05 K, 13008 kPa, x2 = 0.95	181.315
240.05 K, 14010 kPa, x2 = 0.95	194.555
240.05 K, 15014 kPa, x2 = 0.95	207.511
240.05 K, 16011 kPa, x2 = 0.95	220.048
240.05 K, 17007 kPa, x2 = 0.95	232.236
240.05 K, 18019 kPa, x2 = 0.95	244.268
240.05 K, 19018 kPa, x2 = 0.95	255.783
240.05 K, 19977 kPa, x2 = 0.95	266.493
240.07 K, 998 kPa, x2 = 0.9	12.789
240.07 K, 999 kPa, x2 = 0.5001	7.515
240.07 K, 1998 kPa, x2 = 0.9	25.761
240.07 K, 2000 kPa, x2 = 0.5001	14.997
240.07 K, 3000 kPa, x2 = 0.9	38.902
240.07 K, 3998 kPa, x2 = 0.9	52.1
240.07 K, 3999 kPa, x2 = 0.5001	29.835
240.07 K, 4998 kPa, x2 = 0.5001	37.187
240.07 K, 4998 kPa, x2 = 0.9	65.397
240.07 K, 5999 kPa, x2 = 0.5001	44.484
240.07 K, 5999 kPa, x2 = 0.9	78.743
240.07 K, 6999 kPa, x2 = 0.5001	51.715
240.07 K, 6999 kPa, x2 = 0.9	92.089
240.07 K, 8000 kPa, x2 = 0.9	105.416
240.07 K, 9001 kPa, x2 = 0.9	118.665
240.07 K, 10003 kPa, x2 = 0.9	131.826
240.07 K, 11003 kPa, x2 = 0.9	144.806
240.07 K, 12006 kPa, x2 = 0.9	157.633
240.07 K, 13007 kPa, x2 = 0.9	170.235
240.07 K, 14004 kPa, x2 = 0.9	182.528
240.07 K, 15010 kPa, x2 = 0.9	194.68
240.07 K, 16012 kPa, x2 = 0.9	206.497
240.07 K, 17016 kPa, x2 = 0.9	218.039
240.07 K, 18009 kPa, x2 = 0.9	229.14
240.07 K, 19021 kPa, x2 = 0.9	240.134
240.07 K, 19857 kPa, x2 = 0.9	248.956
240.08 K, 2989 kPa, x2 = 0.5001	22.354
240.08 K, 7999 kPa, x2 = 0.5001	58.867
240.08 K, 8999 kPa, x2 = 0.5001	65.94
240.08 K, 10002 kPa, x2 = 0.5001	72.937
240.08 K, 11003 kPa, x2 = 0.5001	79.831
240.08 K, 17004 kPa, x2 = 0.5001	118.935
240.08 K, 18010 kPa, x2 = 0.5001	125.09
240.08 K, 19066 kPa, x2 = 0.5001	131.423
240.09 K, 12008 kPa, x2 = 0.5001	86.648
240.09 K, 13002 kPa, x2 = 0.5001	93.298
240.09 K, 14003 kPa, x2 = 0.5001	99.881
240.09 K, 15003 kPa, x2 = 0.5001	106.346
240.09 K, 16007 kPa, x2 = 0.5001	112.717
250.02 K, 998 kPa, x2 = 0.95	12.909
250.02 K, 1998 kPa, x2 = 0.95	25.981
250.02 K, 2999 kPa, x2 = 0.95	39.211
250.02 K, 3999 kPa, x2 = 0.95	52.525
250.02 K, 4999 kPa, x2 = 0.95	65.908
250.02 K, 5999 kPa, x2 = 0.95	79.318
250.02 K, 6999 kPa, x2 = 0.95	92.739
250.02 K, 8001 kPa, x2 = 0.95	106.147
250.02 K, 9002 kPa, x2 = 0.95	119.485
250.02 K, 9998 kPa, x2 = 0.95	132.641
250.02 K, 11003 kPa, x2 = 0.95	145.769
250.02 K, 12002 kPa, x2 = 0.95	158.648
250.02 K, 13002 kPa, x2 = 0.95	171.33
250.02 K, 14006 kPa, x2 = 0.95	183.836
250.02 K, 15009 kPa, x2 = 0.95	196.059
250.02 K, 16008 kPa, x2 = 0.95	207.967
250.02 K, 17012 kPa, x2 = 0.95	219.644
250.02 K, 18015 kPa, x2 = 0.95	231.002
250.02 K, 19020 kPa, x2 = 0.95	242.075
250.02 K, 19863 kPa, x2 = 0.95	251.12
250.03 K, 999 kPa, x2 = 0.5001	7.213
250.03 K, 1999 kPa, x2 = 0.5001	14.386
250.03 K, 2988 kPa, x2 = 0.5001	21.436
250.03 K, 3998 kPa, x2 = 0.5001	28.596
250.03 K, 4998 kPa, x2 = 0.5001	35.626
250.04 K, 998 kPa, x2 = 0.9	12.26
250.04 K, 1998 kPa, x2 = 0.9	24.659
250.04 K, 2987 kPa, x2 = 0.9	37.024
250.04 K, 3998 kPa, x2 = 0.9	49.722
250.04 K, 4998 kPa, x2 = 0.9	62.325
250.04 K, 5999 kPa, x2 = 0.5001	42.6
250.04 K, 5999 kPa, x2 = 0.9	74.953
250.04 K, 6999 kPa, x2 = 0.5001	49.504
250.04 K, 6999 kPa, x2 = 0.9	87.557
250.04 K, 7999 kPa, x2 = 0.5001	56.336
250.04 K, 8000 kPa, x2 = 0.9	100.114
250.04 K, 8999 kPa, x2 = 0.5001	63.085
250.04 K, 9001 kPa, x2 = 0.9	112.6
250.04 K, 9995 kPa, x2 = 0.9	124.895
250.04 K, 9999 kPa, x2 = 0.5001	69.753
